# Results taken from US8389698B2, “Tanaproget derivatives, metabolites, and uses thereof” (Wyeth LLC, priority 2004, dated 2013).
# pEC50: −log10 of the molar value.
# What was measured:
# [1] = Drug related components in plasma; type: in vivo; conditions: rat, dog, and human plasma
# Experimental: (§1) The glucuronide of tanaproget was prepared in male rat liver microsomes, and the structure was identified as a S-glucuronide conjugate by liquid chromatography (LC)/mass spectrometry (MS) and nuclear magnetic resonance (NMR) spectroscopy. […] This S-glucuronide can also be synthetically prepared simultaneously with a N-glucuronide. The two synthetic glucuronides could be separated by HPLC and their structures were all characterized by LC/MS and NMR spectroscopy. In the following scheme, the NSP-989 terminology is used in the place of tanaproget.
# [2] = tested on: Glusulase (glucuronidase); assay: Enzymatic hydrolysis of tanaproget glucuronide conjugate in pooled urine by Glusulase; type: in vitro ADME
# Experimental: In order to confirm that that the tanaproget glucuronide derivative is a prodrug when delivered to patients, the ability of the glucuronide conjugate to be enzymatically cleaved by a glucuronidase which is native to the gastrointestinal tract in humans was used in the following assay.
# Pooled urine samples (4-8 hr) from healthy women were hydrolyzed by Glusulase®. Aliquots (1 mL) of pooled urine were adjusted to pH 5 with 0.5 mL of 0.6 M sodium acetate buffer. The diluted urine was mixed with Glusulase® (9,000 units/mL, 100 μL) and incubated at 37° C. for 1 hr with gentle shaking. The reaction was stopped by the addition of 2 mL of acetone and the precipitate was removed by centrifugation. The supernatant was dried under nitrogen in a TurboVap™ (Caliper Life Sciences, Hopkinton, Mass.).
# [3] = Metabolite identification in liver microsomes; type: in vitro ADME; conditions: male and female rat, dog, and human liver microsomes
# Experimental: as §1
# Incubations (100 mL) were performed with tanaproget (40 μM), UDPGA (5 mM), magnesium chloride (10 mM), and male rat liver microsomes (1.5 mg/mL), in 0.1 M potassium phosphate buffer, pH 7.4 at 37° C. The samples were pre-incubated for 1 minute at 37° C., and the reactions were initiated by the addition of UDPGA. The sample was cooled using an ice bath to stop the reaction after 3 hours. Unreacted tanaproget was removed from the samples by two extractions with diethyl ether (200 mL×2).
# [4] = tested on: alkaline phosphatase activity in T47D cells; assay: Alkaline phosphatase activity in T47D cells; type: cell-based
# Experimental: Tanaproget glucuronides are a prodrug of tanaproget, a first-in-class non-steroidal progesterone receptor agonist for use primarily in contraception. The effect of tanaproget glucuronides on alkaline phosphase activity in T47D cells is analyzed as follows.
# Culture medium: DMEM:F12 (1:1) (GIBCO, BRL) supplemented with 5% (v/v) charcoal stripped fetal bovine serum (not heat-inactivated), 100 U/mL penicillin, 100 μg/mL streptomycin, and 2 mM GlutaMax (GIBCO, BRL).
# Alkaline phosphatase assay buffer: I. 0.1M Tris-HCl, pH 9.8, containing 0.2% Triton X-100, 0.1M Tris-HCl, pH 9.8, containing 4 mM p-nitrophenyl phosphate (Sigma).
# Frozen T47D cells are thawed in a 37° C. water bath and diluted to 280,000 cells/mL in culture medium. To each well in a 96-well plate (Falcon, Becton Dickinson Labware), 180 μl of diluted cell suspension is added.
# Twenty μl of reference or test compounds diluted in the culture medium is then added to each well. The cells are incubated at 37° C. in a 5% CO2 humidified atmosphere for 24 hours. For high throughput screening, one concentration of each compound will be tested at 0.3 μg/mL. […]
# For reference and test compounds, a dose response curve is generated for dose vs. the rate of enzyme reaction (slope). […] EC50 values are calculated from the retransformed values. […]
structure (smiles),measurement,setting,value
"Cn1c(C#N)ccc1-c1ccc2c(c1)C(C)(C)OC(SC1OC(C(=O)O)C(O)C(O)C1O)=N2 [Tanaproget S-glucuronide, S-(β)-D-glucuronide of tanaproget]",abundance as drug related component in plasma,[1],major drug related component
same,conversion of glucuronide into tanaproget by Glusulase,"[2]; pooled urine (4-8 hr) from healthy women, pH 5, Glusulase 9,000 units/mL, 37° C., 1 hr, HPLC and LC/MS",confirmed the conversion of glucuronide into parent drug tanaproget
same,conversion of glucuronide into tanaproget in control incubations,"[2]; same conditions without Glusulase, or with Glusulase and 10 mM saccharolactone (β-glucuronidase inhibitor)",no conversion of glucuronide conjugate into tanaproget was observed
same,abundance as metabolite of tanaproget in liver microsomes,[3],major metabolite
same,pEC50,"[4]; Homo sapiens, 24 hours treatment",10.00
same,efficacy as compared to progesterone,"[4]; alkaline phosphatase, relative to progesterone",60%
